Results as given in US8080580B2, “Dioxa-bicyclo[3.2.1]octane-2,3,4-triol derivatives” (Pfizer Inc., priority 2008, dated 2011).
Values joined by “and” are separate entries in the source; they are usually repeats but may differ in a detail not shown here. Equal entries are not always repeated.

Assays:
hSGLT1 = biological target: T1, hSGLT1 (Homo sapiens, UniProt P13866); assay: SGLT1 functional assay: hSGLT1 IC50 (selectivity counter-screen to the SGLT2 AMG uptake assay); format: cell-based; settings: individual runs (Run No.)
T1 sequence (P13866 1-664): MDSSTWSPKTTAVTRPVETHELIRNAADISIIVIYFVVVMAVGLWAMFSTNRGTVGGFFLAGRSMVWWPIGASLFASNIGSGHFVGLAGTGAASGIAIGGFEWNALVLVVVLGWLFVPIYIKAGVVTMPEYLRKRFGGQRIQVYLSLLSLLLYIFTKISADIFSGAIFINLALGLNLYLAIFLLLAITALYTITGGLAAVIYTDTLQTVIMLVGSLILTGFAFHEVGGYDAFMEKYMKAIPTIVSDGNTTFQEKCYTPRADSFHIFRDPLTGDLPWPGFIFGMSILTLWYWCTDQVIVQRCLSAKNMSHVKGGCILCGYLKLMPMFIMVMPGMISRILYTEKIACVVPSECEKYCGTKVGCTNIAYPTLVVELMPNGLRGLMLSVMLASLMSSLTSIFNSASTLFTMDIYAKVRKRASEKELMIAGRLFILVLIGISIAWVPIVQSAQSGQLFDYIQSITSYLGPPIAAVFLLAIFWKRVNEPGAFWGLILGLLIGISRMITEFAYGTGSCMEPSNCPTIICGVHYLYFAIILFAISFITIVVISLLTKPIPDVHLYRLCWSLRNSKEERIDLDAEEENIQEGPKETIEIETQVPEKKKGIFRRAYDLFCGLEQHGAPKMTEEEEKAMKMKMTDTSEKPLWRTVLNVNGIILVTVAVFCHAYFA

Male Sprague Dawley rats = assay: In-vivo assay: urinary glucose excretion in rats after oral gavage; settings: rat, urine collected for 24 hours
Experimental: Examples 1A and 4A were tested in rats to assess inhibition of glucose transport via urinary glucose excretion. Male Sprague Dawley rats (˜300 g) were singly housed in metabolic cages for urine collection. Rats had access to standard laboratory chow and water ad libitum. Rats (n=2 to 5/group) received vehicle or compound by oral gavage. Dosing solutions were 0.03 mg/mL, 0.3 mg/mL, 0.9 mg/mL, 3 mg/mL, 9 mg/mL and 18 mg/mL for the 0.1 mg/kg, 1 mg/kg, 3 mg/kg, 10 mg/kg, 30 mg/kg and 60 mg/kg doses respectively. Dosing volume was 1 mL/300 g of body weight for all doses. […] The vehicle was 20% v/v PEG400 and 24% v/v hydroxypropyl beta cyclodextrin; HPBCD. Following oral administration, urine was collected for 24 hours. Glucose concentration was measured in urine by UV absorbance spectrophotometry at 340 nm using a Roche Hitachi 917 spectrophotometer (Diamond Diagnostics, Holliston, Mass.). The total amount of glucose excreted in the urine was calculated as the product of urine concentration and urine volume using the formula below: urinary glucose excreted (mg)/200 g body weight=urinary glucose concentration (mg/dL)×urine volume (dL)×200/rat body weight (g). […] Blood (0.1 mL) was collected from the PK satellite group animals at 1, 2, 4, 7, 24 hours postdose to obtain plasma and analyzed by LC-MS/MS.

human SGLT2 = biological target: T2, human SGLT2 (Homo sapiens, UniProt P31639); assay: SGLT2 functional assay: inhibition of AMG uptake in CHO-FlpIn cells stably expressing human SGLT2; format: cell-based; settings: individual runs (Run No.), read-out: hSGLT2 IC50
T2 construct: expressed in transfected cells; host or cells: CHO-FlpIn (Invitrogen)
T2 sequence (P31639 1-672): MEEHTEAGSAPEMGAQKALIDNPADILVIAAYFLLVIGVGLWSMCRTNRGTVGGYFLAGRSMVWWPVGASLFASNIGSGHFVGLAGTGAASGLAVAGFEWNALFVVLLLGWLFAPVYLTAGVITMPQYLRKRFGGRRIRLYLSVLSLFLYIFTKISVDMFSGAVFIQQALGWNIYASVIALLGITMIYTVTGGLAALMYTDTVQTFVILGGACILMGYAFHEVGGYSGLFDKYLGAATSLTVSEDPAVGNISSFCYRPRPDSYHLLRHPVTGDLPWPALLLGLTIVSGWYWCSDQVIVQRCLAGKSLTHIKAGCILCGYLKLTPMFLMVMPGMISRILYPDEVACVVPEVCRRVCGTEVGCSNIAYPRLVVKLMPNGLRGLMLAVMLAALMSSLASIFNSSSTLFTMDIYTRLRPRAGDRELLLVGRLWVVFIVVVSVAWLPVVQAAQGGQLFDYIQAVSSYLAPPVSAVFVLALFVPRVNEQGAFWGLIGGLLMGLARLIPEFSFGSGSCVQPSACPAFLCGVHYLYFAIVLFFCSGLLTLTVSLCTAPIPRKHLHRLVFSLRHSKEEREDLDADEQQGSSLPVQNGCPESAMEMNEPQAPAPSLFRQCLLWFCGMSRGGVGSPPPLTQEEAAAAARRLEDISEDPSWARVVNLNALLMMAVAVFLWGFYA
Excerpt: The SGLT2 functional assay was designed to detect the inhibition of methyl-alpha-D glucopyranoside (AMG—a non-metabolizable form of glucose) uptake via the SGLT2 transporter. The SGLT2 transporter recovers glucose from the proximal tubules of the kidney; its inhibition results in sugar wasted in the urine. The positive control compound, Phlorizin, is a known inhibitor of glucose uptake for SGLT2 and was used for comparing the high percent effect of SGLT2 inhibition of the test compounds.
CHO-FlpIn (Invitrogen, Carlsbad, Calif.) cells stably expressing human SGLT2 (pcDNA5/FRT) were plated in Iso-TC 96 well plates (Perkin Elmer, Waltham, Mass.) at a density of 100,000 cells/well in 100 microL of growth media (1:1 F-12/DMEM media (Gibco, Carlsbad, Calif.), 10% FBS (Sigma, St. Louis Mo.), 1× Pen/Strep (Gibco, Carlsbad, Calif.), 600 microg/mL Hygromycin (Invitrogen, Carlsbad, Calif.)). Prior to treating with test compound, confluent cells were serum starved for 2 hours at 37° C. in 1:1 F-12/DMEM media, replacing with fresh F-12/DMEM media after 1 hour. […] Cell plates were then incubated for 3 hours at 37° C. for AMG uptake.

| Compound | IC50 (hSGLT1) | Mean UGE (mg/200 g of body weight) ± SEM (n = 5) (Male Sprague Dawley rats; 0.1 mg/kg) | Mean UGE (mg/200 g of body weight) ± SEM (n = 5) (Male Sprague Dawley rats; 1 mg/kg) | Mean UGE (mg/200 g of body weight) ± SEM (n = 5) (Male Sprague Dawley rats; 3 mg/kg) | Mean UGE (mg/200 g of body weight) ± SEM (n = 5) (Male Sprague Dawley rats; 10 mg/kg) | Mean UGE (mg/200 g of body weight) ± SEM (n = 5) (Male Sprague Dawley rats; 30 mg/kg) | Mean UGE (mg/200 g of body weight) ± SEM (n = 5) (Male Sprague Dawley rats; 60 mg/kg) | IC50 (human SGLT2) |
| --- | --- | --- | --- | --- | --- | --- | --- | --- |
| CCOc1ccc(Cc2cc([C@]34OC[C@](CO)(O3)[C@@H](O)[C@H](O)[C@H]4O)ccc2Cl)cc1 [Example 4A, (1S,2S,3S,4R,5S)-5-[4-chloro-3-(4-ethoxy-benzyl)-phenyl]-1-hydroxymethyl-6,8-dioxa-bicyclo[3.2.1]octane-2,3,4-triol] | 1590 nM and 1010 nM and 1750 nM and > 1000 nM and 2090 nM and 1810 nM and 2860 nM and 2480 nM and 2840 nM | 389.0 ± 62.54 mg/200 g of body weight | 1519 ± 52.02 mg/200 g of body weight | 1937 ± 101.1 mg/200 g of body weight | 2145 ± 132.3 mg/200 g of body weight | 2554 ± 141.1 mg/200 g of body weight | 2437 ± 116.7 mg/200 g of body weight | 1.27 nM and 0.816 nM and 0.57 nM and 0.922 nM and 1.85 nM and 0.812 nM and 0.7 nM and 0.737 nM and 0.846 nM and 0.768 nM |
| COc1ccc(Cc2cc([C@]34OC[C@](CO)(O3)[C@@H](O)[C@H](O)[C@H]4O)ccc2C)cc1 [Example 1A, (1S,2S,3S,4R,5S)-1-hydroxymethyl-5-[3-(4-methoxy-benzyl)-4-methyl-phenyl]-6,8-dioxa-bicyclo[3.2.1]octane-2,3,4-triol] | 359 nM and 1080 nM and 454 nM and 327 nM and 562 nM and 262 nM |  |  |  | 2049 ± 382.2 mg/200 g of body weight |  |  | 1.61 nM and 1.55 nM and 1.15 nM and 0.779 nM and 0.715 nM and 0.654 nM |
